From the NIST ThermoML archive (doi:10.1016/j.tca.2014.05.014)
Numbers after ± are expanded uncertainties.

Assay: mn = molality of the nth substance listed, in mol/kg
Settings: 101 kPa, Liquid; for speed of sound: Frequency=3 MHz, Sing-around technique in a fixed-path interferometer; for mass density: Vibrating tube method

CC(=O)NCC(=O)O [N-acetylglycine] + O
speed of sound (288.15 K, m1 = 0.0203): 1467.5 ± 1.2 m/s | speed of sound (288.15 K, m1 = 0.06014): 1469.4 ± 1.2 m/s | speed of sound (288.15 K, m1 = 0.1002): 1471.4 ± 1.2 m/s | speed of sound (288.15 K, m1 = 0.1403): 1473.3 ± 1.2 m/s | speed of sound (288.15 K, m1 = 0.1695): 1474.8 ± 1.2 m/s | speed of sound (288.15 K, m1 = 0.2002): 1475.9 ± 1.2 m/s | mass density (288.15 K, m1 = 0.0203): 1000.3 ± 0.17 kg/m3 | mass density (288.15 K, m1 = 0.06014): 1001.63 ± 0.17 kg/m3 | mass density (288.15 K, m1 = 0.1002): 1002.81 ± 0.17 kg/m3 | mass density (288.15 K, m1 = 0.1403): 1004 ± 0.17 kg/m3 | mass density (288.15 K, m1 = 0.1695): 1004.75 ± 0.17 kg/m3 | mass density (288.15 K, m1 = 0.2002): 1005.54 ± 0.17 kg/m3 | speed of sound (293.15 K, m1 = 0.0203): 1483.6 ± 1.2 m/s | speed of sound (293.15 K, m1 = 0.06014): 1485.4 ± 1.2 m/s | speed of sound (293.15 K, m1 = 0.1002): 1486.8 ± 1.2 m/s | speed of sound (293.15 K, m1 = 0.1403): 1488.9 ± 1.2 m/s | speed of sound (293.15 K, m1 = 0.1695): 1489.9 ± 1.2 m/s | speed of sound (293.15 K, m1 = 0.2002): 1491.4 ± 1.2 m/s | mass density (293.15 K, m1 = 0.0203): 999.25 ± 0.17 kg/m3 | mass density (293.15 K, m1 = 0.06014): 1000.6 ± 0.17 kg/m3 | mass density (293.15 K, m1 = 0.1002): 1001.87 ± 0.17 kg/m3 | mass density (293.15 K, m1 = 0.1403): 1003.13 ± 0.17 kg/m3 | mass density (293.15 K, m1 = 0.1695): 1003.97 ± 0.17 kg/m3 | mass density (293.15 K, m1 = 0.2002): 1004.9 ± 0.17 kg/m3 | speed of sound (298.15 K, m1 = 0.0203): 1497.7 ± 1.2 m/s | speed of sound (298.15 K, m1 = 0.06014): 1499 ± 1.2 m/s | speed of sound (298.15 K, m1 = 0.1002): 1500.5 ± 1.2 m/s | speed of sound (298.15 K, m1 = 0.1403): 1502.1 ± 1.2 m/s | speed of sound (298.15 K, m1 = 0.1695): 1503.3 ± 1.2 m/s | speed of sound (298.15 K, m1 = 0.2002): 1504.2 ± 1.2 m/s | mass density (298.15 K, m1 = 0.0203): 997.843 ± 0.17 kg/m3 | mass density (298.15 K, m1 = 0.06014): 999.038 ± 0.17 kg/m3 | mass density (298.15 K, m1 = 0.1002): 1000.36 ± 0.17 kg/m3 | mass density (298.15 K, m1 = 0.1403): 1001.63 ± 0.17 kg/m3 | mass density (298.15 K, m1 = 0.1695): 1002.73 ± 0.17 kg/m3 | mass density (298.15 K, m1 = 0.2002): 1003.76 ± 0.17 kg/m3 | speed of sound (303.15 K, m1 = 0.0203): 1510 ± 1.2 m/s | speed of sound (303.15 K, m1 = 0.06014): 1511.4 ± 1.2 m/s | speed of sound (303.15 K, m1 = 0.1002): 1512.4 ± 1.2 m/s | speed of sound (303.15 K, m1 = 0.1403): 1514.2 ± 1.2 m/s | speed of sound (303.15 K, m1 = 0.1695): 1514.9 ± 1.2 m/s | speed of sound (303.15 K, m1 = 0.2002): 1515.6 ± 1.2 m/s | mass density (303.15 K, m1 = 0.0203): 996.325 ± 0.17 kg/m3 | mass density (303.15 K, m1 = 0.06014): 997.499 ± 0.17 kg/m3 | mass density (303.15 K, m1 = 0.1002): 998.819 ± 0.17 kg/m3 | mass density (303.15 K, m1 = 0.1403): 1000.17 ± 0.16 kg/m3 | mass density (303.15 K, m1 = 0.1695): 1001.25 ± 0.17 kg/m3 | mass density (303.15 K, m1 = 0.2002): 1002.59 ± 0.17 kg/m3 | speed of sound (308.15 K, m1 = 0.0203): 1520.3 ± 1.2 m/s | speed of sound (308.15 K, m1 = 0.06014): 1521.5 ± 1.2 m/s | speed of sound (308.15 K, m1 = 0.1002): 1522.6 ± 1.2 m/s | speed of sound (308.15 K, m1 = 0.1403): 1524 ± 1.2 m/s | speed of sound (308.15 K, m1 = 0.1695): 1524.9 ± 1.2 m/s | speed of sound (308.15 K, m1 = 0.2002): 1525.8 ± 1.2 m/s | mass density (308.15 K, m1 = 0.0203): 994.871 ± 0.17 kg/m3 | mass density (308.15 K, m1 = 0.06014): 996.032 ± 0.17 kg/m3 | mass density (308.15 K, m1 = 0.1002): 997.262 ± 0.17 kg/m3 | mass density (308.15 K, m1 = 0.1403): 998.641 ± 0.17 kg/m3 | mass density (308.15 K, m1 = 0.1695): 999.567 ± 0.16 kg/m3 | mass density (308.15 K, m1 = 0.2002): 1001.25 ± 0.17 kg/m3
